Assay [1] relates to Staphylococcus aureus. The experiment in a line: Antimicrobial activity against Staphylococcus aureus USA300 isolate harboring pSK41 plasmid expressing ermC gene assessed resistant isolates. The class given is functional.
The subject of assay [2] is Staphylococcus aureus. As to the kind of experiment: Antimicrobial activity against Staphylococcus aureus USA300 isolate harboring pSK41 plasmid assessed resistant isolates. Type of assay: functional.
The subject of assay [3] is Staphylococcus aureus. The experiment in a line: Antimicrobial activity against Staphylococcus aureus USA300 isolate harboring pSK41 plasmid expressing tetK gene assessed resistant isolates. Type of assay: functional.
Assay [4] relates to Staphylococcus aureus. The experiment in a line: Antimicrobial activity against Staphylococcus aureus USA300 isolate harboring pSK41 plasmid expressing aac'-aph'''' gene assessed resistant isolates. Type of assay: functional, organism-based.

Compound `CCC[C@@H]1C[C@@H](C(=O)N[C@@H]([C@H]2O[C@H](SC)[C@H](O)[C@@H](O)[C@H]2O)[C@H](C)Cl)N(C)C1` [CLINDAMYCIN] had an Activity in the assay on Staphylococcus aureus [1] of 6.2%.
In the case of `CC[C@H]1OC(=O)[C@H](C)[C@@H](O[C@H]2C[C@@](C)(OC)[C@@H](O)[C@H](C)O2)[C@H](C)[C@@H](O[C@@H]2O[C@H](C)C[C@H](N(C)C)[C@H]2O)[C@](C)(O)C[C@@H](C)C(=O)[C@H](C)[C@@H](O)[C@]1(C)O` [ERYTHROMYCIN], the Activity in the assay on Staphylococcus aureus [2] came out at 85%.
The same measure, in the same setting: next, `C[C@H]1COc2c(N3CCN(C)CC3)c(F)cc3c(=O)c(C(=O)O)cn1c23.C[C@H]1COc2c(N3CCN(C)CC3)c(F)cc3c(=O)c(C(=O)O)cn1c23.O` [LEVOFLOXACIN]: 45%; `Cc1onc(-c2ccccc2)c1C(=O)N[C@@H]1C(=O)N2[C@@H]1SC(C)(C)[C@@H]2C(=O)O` [OXACILLIN]: 100%; `CC1(C)S[C@@H]2[C@H](NC(=O)Cc3ccccc3)C(=O)N2[C@H]1C(=O)O` [PENICILLIN G]: 100%.
In turn, `CN(C)[C@@H]1C(O)=C(C(N)=O)C(=O)[C@@]2(O)C(O)=C3C(=O)c4c(O)cccc4[C@@](C)(O)[C@H]3C[C@@H]12` [TETRACYCLINE] showed an Activity in the assay on Staphylococcus aureus [3] of 8.4%.
Compound GENTAMICIN yielded an Activity with Staphylococcus aureus [4] of 1%.

The values are drawn from ChEMBL document CHEMBL1671712, “Emergence of resistance among USA300 methicillin-resistant Staphylococcus aureus isolates causing invasive disease in the United States” (2010).
